Source: patent publication US8685970B2, “Quinolines and related analogs as sirtuin modulators” (GlaxoSmithKline, LLC, priority 2008, dated 2014)

These molecules were tested against T1, SIRT1 (Homo sapiens, UniProt Q96EB6) (assay: Mass spectrometry based SIRT1 deacetylation assay (activation)). Details: 10 nM SIRT1, 0.5 μM peptide substrate, 120 μM βNAD+, 25 min at 25° C.
T1 sequence (Q96EB6 1-747): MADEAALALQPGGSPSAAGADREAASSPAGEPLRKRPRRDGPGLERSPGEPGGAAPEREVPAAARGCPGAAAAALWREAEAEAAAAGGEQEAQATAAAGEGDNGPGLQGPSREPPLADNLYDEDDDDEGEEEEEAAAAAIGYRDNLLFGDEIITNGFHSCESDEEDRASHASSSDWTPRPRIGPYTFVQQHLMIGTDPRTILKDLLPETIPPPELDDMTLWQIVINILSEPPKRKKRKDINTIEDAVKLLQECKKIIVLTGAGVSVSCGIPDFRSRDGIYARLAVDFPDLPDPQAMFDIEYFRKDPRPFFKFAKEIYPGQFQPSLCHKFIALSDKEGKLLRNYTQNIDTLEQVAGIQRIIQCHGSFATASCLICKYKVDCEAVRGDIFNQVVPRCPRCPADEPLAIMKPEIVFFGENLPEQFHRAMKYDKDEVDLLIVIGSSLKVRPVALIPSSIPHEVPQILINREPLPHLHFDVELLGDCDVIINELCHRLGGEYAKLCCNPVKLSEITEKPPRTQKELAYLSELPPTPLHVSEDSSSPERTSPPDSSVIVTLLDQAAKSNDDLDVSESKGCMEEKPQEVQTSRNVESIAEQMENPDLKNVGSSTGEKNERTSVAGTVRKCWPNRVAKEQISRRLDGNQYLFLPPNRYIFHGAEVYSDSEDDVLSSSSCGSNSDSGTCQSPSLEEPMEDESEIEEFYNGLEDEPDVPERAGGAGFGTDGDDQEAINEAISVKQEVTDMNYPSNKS
Assay type: biochemical
Method in brief: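 Activation reported as EC1.5, the compound concentration producing 150% of DMSO-control deacetylation, plus maximum fold activation. Readout is mass-spectrometric ratio of deacetylated to acetylated p53-based peptide (0.5 μM) after 25 min, 25 °C, with 120 μM βNAD+ and 10 nM His-tagged human SIRT1, pH 8.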

Compound	% Fold Act. (percent maximum fold activation)	EC1.5 (concentration of test compound that results in 150% activation of SIRT1)
Cc1ccc(-c2ccc3cccc(NC(=O)c4cscn4)c3n2)cc1 [Compound 212]	B (Fold Activation <200%)	B (EC1.5 1-25 uM)
Cc1ccc(-c2ccc3cccc(NC(=O)c4cscn4)c3n2)cc1F [Compound 213]	B (Fold Activation <200%)	A (EC1.5<1.0 uM)
Cc1cncc(-c2ccc3cccc(NC(=O)c4cscn4)c3n2)c1 [Compound 214]	A (Fold activation >200%)	A (EC1.5<1.0 uM)
CN(C)c1cccc(C(=O)Nc2cccc3ccc(-c4cccc(C(F)(F)F)c4)nc23)c1 [Compound 215]	B (Fold Activation <200%)	A (EC1.5<1.0 uM)
CN1CCN(Cc2cccc(C(=O)Nc3cccc4ccc(-c5cccc(C(F)(F)F)c5)nc34)c2)CC1 [Compound 216]	A (Fold activation >200%)	A (EC1.5<1.0 uM)
O=C(Nc1cccc(OC[C@H](O)CO)c1)c1cccc2ccc(-c3cccc(C(F)(F)F)c3)nc12 [Compound 217]	A (Fold activation >200%)	A (EC1.5<1.0 uM)
O=C(Nc1ncc(CN2CCCC2)s1)c1cccc2ccc(-c3cccnc3)nc12 [Compound 218]	A (Fold activation >200%)	B (EC1.5 1-25 uM)
O=C(Nc1ncc(CN2CCCC2)s1)c1cccc2ccc(-c3cccc(C(F)(F)F)c3)nc12 [Compound 219]	A (Fold activation >200%)	A (EC1.5<1.0 uM)
O=C(Nc1cccc2ccc(-c3cccc(C(F)(F)F)c3)nc12)c1cncs1 [Compound 220]	A (Fold activation >200%)	A (EC1.5<1.0 uM)
Cn1cnc(C(=O)Nc2cccc3ccc(-c4cccc(C(F)(F)F)c4)nc23)c1 [Compound 221]	A (Fold activation >200%)	A (EC1.5<1.0 uM)
Cn1ccnc1C(=O)Nc1cccc2ccc(-c3cccc(C(F)(F)F)c3)nc12 [Compound 222]	A (Fold activation >200%)	A (EC1.5<1.0 uM)
Cc1cc(-c2ccc3cccc(C(=O)Nc4nccs4)c3n2)ccn1 [Compound 223]		C (EC1.5>25 uM)
O=C(Nc1cccc2ccc(-c3cccc(C(F)(F)F)c3)nc12)c1cc[nH]n1 [Compound 224]	A (Fold activation >200%)	A (EC1.5<1.0 uM)
Cc1cnc(NC(=O)c2cccc3ccc(-c4cccnc4)nc23)s1 [Compound 225]		C (EC1.5>25 uM)
Cc1nc(NC(=O)c2cccc3ccc(-c4cccnc4)nc23)sc1C [Compound 226]	A (Fold activation >200%)	B (EC1.5 1-25 uM)
O=C(Nc1cccc(CN2CCCC2)n1)c1cccc2ccc(-c3cccc(C(F)(F)F)c3)nc12 [Compound 227]	A (Fold activation >200%)	A (EC1.5<1.0 uM)
O=C(Nc1cccc(CN2CCOCC2)n1)c1cccc2ccc(-c3cccc(C(F)(F)F)c3)nc12 [Compound 228]	A (Fold activation >200%)	A (EC1.5<1.0 uM)
CS(=O)(=O)c1cncc(-c2ccc3cccc(NC(=O)c4cscn4)c3n2)c1 [Compound 229]	A (Fold activation >200%)	B (EC1.5 1-25 uM)
O=C(Nc1cccc(CN2CCCC2)n1)c1cccc2ccc(-c3cccnc3)nc12 [Compound 230]	A (Fold activation >200%)	B (EC1.5 1-25 uM)
O=C(Nc1cccc(CN2CCOCC2)n1)c1cccc2ccc(-c3cccnc3)nc12 [Compound 231]	A (Fold activation >200%)	A (EC1.5<1.0 uM)

Compound	% Fold Act. (percent maximum fold activation)	EC1.5 (concentration of test compound that results in 150% activation of SIRT1)
O=C(Nc1ncnc2ccc(-c3cccc(OC(F)(F)F)c3)nc12)c1ccc(CN2CCCC2)cc1 [Compound 232]	A (Fold activation >200%)	B (EC1.5 1-25 uM)
O=C(Nc1nc2ccccc2s1)c1cccc2ccc(-c3cccnc3)nc12 [Compound 233]	B (Fold Activation <200%)	B (EC1.5 1-25 uM)
O=C(Nc1nncs1)c1cccc2ccc(-c3cccnc3)nc12 [Compound 234]		C (EC1.5>25 uM)
Cc1nnc(NC(=O)c2cccc3ccc(-c4cccnc4)nc23)s1 [Compound 235]		C (EC1.5>25 uM)
Cc1cc(NC(=O)c2cccc3ccc(-c4cccnc4)nc23)sn1 [Compound 236]		C (EC1.5>25 uM)
O=C(Nc1ccncc1)c1cccc2ccc(-c3cccnc3)nc12 [Compound 237]		C (EC1.5>25 uM)
Cc1csc(NC(=O)c2cccc3ccc(-c4cccc(N5CCOCC5)c4)nc23)n1 [Compound 238]	A (Fold activation >200%)	A (EC1.5<1.0 uM)
Cc1cnc(NC(=O)c2cccc3ccc(-c4cccc(N5CCOCC5)c4)nc23)s1 [Compound 239]	A (Fold activation >200%)	A (EC1.5<1.0 uM)
Cc1nc(NC(=O)c2cccc3ccc(-c4cccc(N5CCOCC5)c4)nc23)sc1C [Compound 240]	A (Fold activation >200%)	A (EC1.5<1.0 uM)
Cc1cnc(NC(=O)c2cccc3ccc(-c4cccnc4)nc23)s1 [Compound 241]	B (Fold Activation <200%)	A (EC1.5<1.0 uM)
Cc1cncc(-c2ccc3cccc(C(=O)Nc4nccs4)c3n2)c1 [Compound 242]		C (EC1.5>25 uM)
Cc1cncc(-c2ccc3cccc(C(=O)Nc4cccc(CN5CCOCC5)c4)c3n2)c1 [Compound 243]	A (Fold activation >200%)	A (EC1.5<1.0 uM)
Cc1cncc(-c2ccc3cccc(C(=O)Nc4cccc(CN5CCOCC5)n4)c3n2)c1 [Compound 244]	A (Fold activation >200%)	A (EC1.5<1.0 uM)
Cn1ccc(C(=O)Nc2cccc3ccc(-c4cccc(C(F)(F)F)c4)nc23)n1 [Compound 245]	A (Fold activation >200%)	A (EC1.5<1.0 uM)
O=C(Nc1cccc2ccc(-c3ccc(N4CCOCC4)nc3)nc12)c1cscn1 [Compound 246]	A (Fold activation >200%)	B (EC1.5 1-25 uM)
O=C(Nc1nccs1)c1cccc2ccc(-c3cccc(C(F)F)c3)nc12 [Compound 247]	A (Fold activation >200%)	A (EC1.5<1.0 uM)
Cc1cc(C)nc(NC(=O)c2cccc3ccc(-c4cccnc4)nc23)c1 [Compound 248]	A (Fold activation >200%)	A (EC1.5<1.0 uM)
Cc1cccc(NC(=O)c2cccc3ccc(-c4cccnc4)nc23)n1 [Compound 249]	A (Fold activation >200%)	B (EC1.5 1-25 uM)
O=C(Nc1nc2ccccc2s1)c1cccc2ccc(-c3cccc(N4CCOCC4)c3)nc12 [Compound 250]	A (Fold activation >200%)	A (EC1.5<1.0 uM)
O=C(Nc1nncs1)c1cccc2ccc(-c3cccc(N4CCOCC4)c3)nc12 [Compound 251]	A (Fold activation >200%)	A (EC1.5<1.0 uM)
